Measurements from patent US10351915B2 (Berg LLC, priority 2009, dated 2019).

What was measured:
a variety of cell types = experiment: Western blot analysis (Bcl-xL, Vimentin, oxidative phosphorylation and mitochondrial membrane proteins); assay type: cell-based; details: 50 or 100 μM Q10
Protocol: Approximately 50 μg of protein were assayed per sample by immunoblotting. All treatments were run in triplicate with controls. […] The primary antibodies were incubated overnight at 4 degrees C. in a 5% BSA and TBST solution. Secondary antibodies were incubated for one hour at 4 degrees. All antibodies were purchased from Cell Signaling Technology. Antibodies were used at a ratio of 1:1000, with the exception of βActin at a ratio of 1:5000. Blots were developed and results were quantified using the NIH Java based densitometer analysis software Image J. All blots were also probed for and normalized to their respective βActin expression.
The first experiment processed and evaluated by Western blot and 2-D gel electrophoresis was carried out on the skin cancer cell line SKMEL-28.
A variety of cell types were evaluated by Western blot analysis against an antibody for Bcl-xL (FIG. 14), an antibody for Vimentin (FIG. 15), a series of antibodies for mitochondrial oxidative phosphorylation function (FIGS. 16-21) and against a series of antibodies related to mitochondrial membrane integrity (FIGS. 22-27).

SKMEL-28 mitochondria = experiment: 2-D gel electrophoresis of mitochondria enriched samples; assay type: cell-based
[1] = test system: HepG2 (liver cancer) cells; experiment: PCR Diabetes Array; assay type: cell-based; details: 100 μM Q10, 48 hours
Protocol: The treatment was initiated on 1×10^5 cells per well, following the procedure utilized in the PaCa2 cells (above, Examples 9-11). However, the total amount of RNA that was extracted from these samples was lower than expected. Reverse transcription is normally done using 1 μg total RNA (determined by measurement at 260 nm). The maximum volume that can be used per reverse transcription is 8 μl.

Caspase 3 = experiment: Western blot, Caspase 3 levels; assay type: cell-based, human; details: PACA2, 5g glucose, amount 50
Protocol: The blots were stripped by incubating for 30 minutes with methanol, followed by two 10 minute washes with TBS-T, then 30 minutes of incubation with Stripping buffer at 50 deg C., and followed by two washes with 100 ml or more of TBS-T for 30′ each. The 2 blots were scanned in laser scanner to check for complete stripping. The blots were activated with methanol for 5 seconds, washed with water for 5 minutes, and TBST for 15 minutes. The blots were blocked for 1 hour with 5% blocking reagent in TBS-T at room temperature and then washed 3 times with TBS-T (1×-15′; 2×5′ each) and probed with the antibody for Caspase 3 in 5% BSA (Santacruz Biotechnology # sc7272) at 1:200 dilutions) overnight at 4 deg C. with shaking. After the overnight incubation with primary antibody for Caspase 3, the membranes were washed 3 times with TBS-T (1×-15′; 2×5′ each) and probed with the secondary antibody (antimouse; 1:10,000 dilution) for 1 h on the orbital tilting shaker at room temperature. […]
The levels of Caspase 3 and actin were determined by probing the blots successively with primary antibodies for Caspase 3 and actin, essentially as described above. […]

COC1=C(OC)C(=O)C(C/C=C(\C)CC/C=C(\C)CC/C=C(\C)CC/C=C(\C)CC/C=C(\C)CC/C=C(\C)CC/C=C(\C)CC/C=C(\C)CC/C=C(\C)CCC=C(C)C)=C(C)C1=O [Q10, Coenzyme Q10]
levels of examined proteins (a variety of cell types): several of the examined proteins were upregulated or downregulated | Response, direction (SKMEL-28 mitochondria; 100 μM Q10, at 6 hr, protein spot 372): Up | Response (SKMEL-28 mitochondria; 100 μM Q10, at 19 hr): Up only at 19 hr | Response (SKMEL-28 mitochondria; 100 μM Q10, at 48 hr): Up at 48 hr | PPARGCIA mRNA [1]: normalized or were slightly upregulated | Caspase 3 Normalized Volume (48 h) (Caspase 3): 701
